According to patent publication US5260210A, “Blood-brain barrier model” (priority 1990, dated 1993):
“And” between values parts separate entries of the source, which are not always exact repeats. Equal entries are not always repeated. Where two headings read alike, the source gives them in different places. Each block holds one compound with its values, some of them ahead of it.

Assays:
blood-brain barrier [1] = experiment: In vivo tracer experiment: brain uptake of ^3 H-sucrose and ^125 I-BSA after i.v. injection; design: species or system mouse; conditions: Example 11 text
Description: The test compound was delivered to a restrained, unanesthetized mouse (30-35 g) via the tail vein. […] Fifteen or sixty minutes after the injection, the animal, anesthetized with 2% Avertin, was perfused via venipuncture with phosphate buffered saline followed by fixative. The brain was removed immediately, the medulla, pons and hypothalamus excised and the remaining tissue homogenized by passsage through a 3 cc needle into a preweighed scintillation vial containing 1.5 ml Soluene (Packard). The vial was weighed to determine wet tissue weight. Ten ml of Inst-Gel (Packard) was added to each sample after overnight incubation at 75° C. The samples were counted for DPM by liquid scintillation spectrometry. Values are expressed as DPM/gm tissue. A minimum of four animals/group were used for each experiment. Data are expressed as the mean fold-increase which is derived by dividing the treatment value by the control value. Numbers in parenthesis represent the number of experiments carried out for the particular condition.

[2] = Behavioral assay: opioid-induced analgesia, hot plate; assay type: in vivo, mouse; conditions: Table 9, enkephalin 20 mg/kg
Description: Morphine and the naturally occurring opioid peptides, endorphin and enkephalin, bind to μ opioid receptors in the brain and suppress the sensation of pain. […] Mice are placed on a surface uniformly heated to 55° C. The time it takes for the mouse to respond to the heat stimulus by licking its front or hind paws is measured. […] The latency is expressed as % analgesia. [formula] The purpose of these experiments is to test the ability of putative BBB openers to shift the morphine dose response curve to lower doses and thus have analgesic activity when delivered peripherally.

blood-brain barrier [3] = conditions: in vivo; cited from earlier work
[4] = tested on: bovine brain capillary endothelial cells; experiment: Transmonolayer (transendothelial cell) electrical resistance in the in vitro BBB model; conditions: for activity at 0.2 µM / activity at 0.01 µM / activity at 0.03 µM / activity at 0.1 µM: Bos taurus, Endothelial cell, read-out: Resistance (% of control); for effect of phosphodiesterase inhibitors on resistance: FIG. 7, Rolipram or RO-20-1724 17.5 μM, by 30 minutes, no other cyclic AMP elevating agents
Description: The degree of tightness of tight junctions can be also assessed by transcellular electrical resistance measurements. For transendothelial cell resistance measurements, cells were grown on a porous solid support, e.g., a filter or membrane attached to a holding device in order adequately to suspend the cellular monolayer, such as the Costar Transwell apparatus or the ICN Cellogen. […] Cells were maintained in a growth medium or physiological saline, and calomel electrodes on each of the endothelial cells are connected by a saturated KCl - 3% agar bridge. Current is passed between two Ag--AgCl electrodes and the voltage measured with a Keithly multimeter. Resistance is calculated from the change in voltage across the monolayer induced when a short current pulse (10-100 μamp) is applied. The resistance of the filter or membrane alone is subtracted. The resistance, multiplied by the surface area of the filter or membrane, yields the resistance in ohms-cm^2.
Bovine brain capillary endothelial cells were grown on polycarbonate filters in a conditioned growth medium containing either 5% or 10% PDHS. In controls, the growth medium contained 5% PDHS (.quadrature.) or 10% PDHS. […]
Bovine brain endothelial cells were dissociated and plated on tissue culture dishes in 50% MEM/FCS - 50% ADCM. […]
Bovine brain microvascular endothelial cells were isolated and grown on permeable filters in the BBB in vitro model of the invention. Cells were maintained in astrocyte-derived conditioned medium, but were not treated with agents that elevate cyclic AMP levels in such cells.
Resistance was then measured at various times.
The medium containing these cyclic AMP elevating agents was removed, and the cells were washed with fresh growth medium.

[5] = tested on: Type III cyclic GMP-noninhibitable phosphodiesterase; experiment: Inhibition of cyclic AMP phosphodiesterase of brain microvascular endothelial cells
blood-brain barrier [6] = experiment: Brain uptake of ^3 H-sucrose and ^125 I-BSA after intracarotid infusion; assay type: in vivo
Description: Staurosporine was administered by intracarotid infusion. The transport of ^3 H-sucrose and ^125 I-BSA was then determined. The data in Table 7 represent the amount of radioactivity remaining in the brain after infusion and washout. An average of 3-4 animals was used in each category.

bovine endothelial cells [7] = experiment: Transport across high resistance monolayers of bovine endothelial cells on filters; assay type: in vitro ADME; conditions: FIG. 3; compared to cell-free filters
Source text: Still another means for assessing the tightness of junctions among endothelial cells in the blood-brain model of the invention is to compare the transport of a hydrophilic compound, e.g., sucrose, and a hydrophobic compound of similar size, e.g., chlorambucil, across filters with and without monolayered endothelial cells. When the transmonoloayer resistance is high, the transport of sucrose should be low compared to that of chlorambucil (or other hydrophobic compounds of similar size). Alternatively, when the resistance is high, the transport of sucrose should be much less (e.g., 50-fold or more) than across cell-free filters.

bovine endothelial cells [8] = conditions: leaky tight junctions; cited from earlier work
brain endothelial cells = experiment: Leukocyte binding to cultures of blood brain barrier endothelial cells; assay type: cell-based, bovine or human; conditions: Table 14; Jurkat T-cell; + TNFα; two values per cell
Description: When used to treat lymphocytes, the anti-β-1 hybridoma supernatant was used at a 1:2 dilution. The anti-α-4 antibody was purified by the manufacturer, and used at a 5 μg/ml concentration. The anti-β-2 was purified by the manufacturer, and used at 5 μg/ml. For treatment of lymphocytes, the lymphocytes were mixed with the above concentrations of antibody, and allowed to incubate on ice for a about 30 minutes prior to use. The cells were washed to remove unbound antibody, and resuspended in RPMI to a typical concentration of 10^7 cells/ml.
Bovine or human brain endothelial cells were maintained in accordance with the blood brain barrier model as described in the present specification. […]
In this manner, the endothelial cells were exposed to the agent on their ablumenal surface, as would be the typical situation during an inflammatory reaction in the brain. Immediately before the assay, the electrical resistance of the cultures was measured and the filters (supporting the endothelial cells) were washed at room temperature by dipping in three separate vats of D-MEM with 1% FBS and 20 mM Hepes (200 mls. each). […]
In the second method, the leukocytes were prelabeled with a radioactive tracer and the degree of binding was quantified by measuring the amount of radioactivity associated with the entire endothelial surface on the culture filter. […]

[9] = Table 7, Experiment 1, intracarotid infusion, 3-4 animals

Compound: OC[C@H]1O[C@@H](n2cnc3c(NC4CCCC4)ncnc32)[C@H](O)[C@@H]1O [CPA, cyclopentyladenosine]
- increase of uptake by brain of small (sucrose) and large (BSA) molecules (blood-brain barrier [1]): ≤ 300%

Compound: CC(C)C[C@H](NC(=O)[C@H](Cc1ccccc1)NC(=O)CNC(=O)CNC(=O)[C@@H](N)Cc1ccc(O)cc1)C(=O)O [Enkephalin]
- Percent Analgesia ([2]; Experiment 1): 2.8%
- Percent Analgesia ([2]; Experiment 2): 6.4%
- penetration into the brain / BBB crossing (blood-brain barrier [3]): does not penetrate significantly into the brain

- enhancement of transmonolayer electrical resistance ([4]; brain capillary endothelial cells): over 8 fold
Compound: C=C[C@@]1(C)CC(=O)[C@]2(O)[C@@]3(C)[C@@H](O)CCC(C)(C)[C@@H]3[C@H](O)[C@H](OC(C)=O)[C@@]2(C)O1 [Forskolin, forskolin]

Compound: COC(=O)[C@@]1(O)C[C@H]2O[C@]1(C)n1c3ccccc3c3c4c(c5c6ccccc6n2c5c31)C(=O)NC4 [K252a]
- reversibility of effect of protein kinase inhibitors [4]: reversible
- effect of protein kinase inhibitors on resistance ([4]; 10-200 nM): markedly reduce the resistance
- activity at 0.2 µM ([4]; 1 h): 79%
- activity at 0.2 µM ([4]; 2.5 h): 25%
- activity at 0.2 µM ([4]; 24 h): 24%

Compound: N[C@@H](Cc1ccc(O)c(O)c1)C(=O)O [L-DOPA]
- penetration into the brain / BBB crossing (blood-brain barrier [3]): can cross the BBB

Compound: C[C@H](Cc1ccccc1)Nc1ncnc2c1ncn2[C@@H]1O[C@H](CO)[C@@H](O)[C@H]1O [R-PIA, N^6 -(phenylisopropyl)-adenosine]
- increase of uptake by brain of small (sucrose) and large (BSA) molecules (blood-brain barrier [1]): ≤ 300%

Compound: CCCCOc1cc(CC2CNC(=O)N2)ccc1OC (stereo not drawn) [RO-20-1724]
- effect of phosphodiesterase inhibitors on resistance [4]: substantially higher
- inhibition of phosphodiesterase [5]: inhibited

Compound: COc1ccc(C2CNC(=O)C2)cc1OC1CCCC1 (stereo not drawn) [Rolipram]
- effect of phosphodiesterase inhibitors on resistance [4]: substantially higher
- inhibition of phosphodiesterase [5]: inhibited

Compound: CN[C@@H]1C[C@H]2O[C@@](C)([C@@H]1OC)n1c3ccccc3c3c4c(c5c6ccccc6n2c5c31)C(=O)NC4 [Staurosporine]
- activity at 0.01 µM ([4]; 1 h): 108%
- activity at 0.03 µM ([4]; 1 h): 64%
- activity at 0.1 µM ([4]; 1 h): 5.5%
- activity at 0.01 µM ([4]; 2.5 h): 20%
- activity at 0.03 µM ([4]; 2.5 h): 7.7%
- activity at 0.1 µM ([4]; 2.5 h): 0%
- activity at 0.01 µM ([4]; 24 h): 5.2%
- activity at 0.03 µM ([4]; 24 h): 2.3%
- activity at 0.1 µM ([4]; 24 h): 0%
- radioactivity remaining in the brain, ^3 H-Sucrose (blood-brain barrier [6]): 8.7 × 10^3 DPM
- radioactivity remaining in the brain, ^3 H-Sucrose (blood-brain barrier [6]; [9]): 24.3 × 10^3 DPM
- radioactivity remaining in the brain, ^125 I-BSA (blood-brain barrier [6]; [9]): 835 DPM
- radioactivity remaining in the brain, ^125 I-BSA (blood-brain barrier [6]; Table 7, Experiment 2, intracarotid infusion, 3-4 animals): 520 DPM
- effect on entry of tracers into the brain (blood-brain barrier [6]; intracarotid infusion): enhanced entry into the brain of both small (sucrose) and large (BSA) molecules

Compound: Nc1ncnc2c1nc(Sc1ccc(Cl)cc1)n2[C@@H]1O[C@@H]2COP(=O)(O)O[C@H]2[C@H]1O [cyclic AMP analogue, 8-(4-chlorophenylthio) cyclic AMP]
- effect on transmonolayer electrical resistance ([4]; Example 1, FIG. 1, 250 μM, 5% PDHS): greatly increased transmonolayer electrical resistance

Compound: Cc1[nH]c(=O)c(C#N)cc1-c1ccncc1 [milrinone]
- effect of phosphodiesterase inhibitors on resistance [4]: ineffective

Compound: OC[C@H]1O[C@@](CO)(O[C@H]2O[C@H](CO)[C@@H](O)[C@H](O)[C@H]2O)[C@@H](O)[C@@H]1O [sucrose]
- transport across filters with cells (bovine endothelial cells [7]): almost entirely prevented from leaking between the cells
- difference in the rate of sucrose across filters with and without cells, previous models (bovine endothelial cells [8]): 3 to 5 fold

Compound: CCCOc1ccccc1-c1nc2nn[nH]c2c(=O)[nH]1 [zaprinast]
- effect of phosphodiesterase inhibitors on resistance [4]: ineffective

Compound: TNFα
- lymphocyte binding, Count per Minute (brain endothelial cells): 1430 Count per Minute and 1150 Count per Minute
